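Following 48 hours of exposure in 96-well plates, responses at five concentrations were used to interpolate endpoints linearly. Abbreviation: GI50, concentration required for 50% inhibition of growth. TGI marks complete inhibition of growth.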
Tests used:
Experiment in all cases: DTP human tumour cell line panel, 48 h
786-0 renal = test system: 786-0 renal
ACHN renal = test system: ACHN renal
KM12 colon = test system: KM12 colon
KM20L2 colon = test system: KM20L2 colon
LXFL 529 NSCLC = test system: LXFL 529 NSCLC
NCI-H460 lung = test system: NCI-H460 lung
OVCAR-5 ovarian = test system: OVCAR-5 ovarian
SK-OV-3 ovarian = test system: SK-OV-3 ovarian
SW-620 colon = test system: SW-620 colon
HOP-62 NSCLC = test system: HOP-62 NSCLC

Compound | TGI (786-0 renal) [µM] | TGI (ACHN renal) [µM] | TGI (KM12 colon) [µM] | TGI (KM20L2 colon) [µM] | TGI (LXFL 529 NSCLC) [µM] | TGI (NCI-H460 lung) [µM] | TGI (OVCAR-5 ovarian) [µM] | TGI (SK-OV-3 ovarian) [µM] | TGI (SW-620 colon) [µM] | GI50 (786-0 renal) [µM] | GI50 (ACHN renal) [µM] | GI50 (KM12 colon) [µM] | GI50 (KM20L2 colon) [µM] | GI50 (LXFL 529 NSCLC) [µM] | GI50 (NCI-H460 lung) [µM] | GI50 (OVCAR-5 ovarian) [µM] | GI50 (SK-OV-3 ovarian) [µM] | GI50 (SW-620 colon) [µM] | TGI (HOP-62 NSCLC) [µM] | GI50 (HOP-62 NSCLC) [µM]
Cn1c2cc([N+](=O)[O-])ccc2c(=O)c2c(O)cc3c(c21)C=CC(C)(C)O3 | > 100 | > 100 | > 100 | > 100 | > 100 | > 100 | 80.4 | 87.8 | > 100 |  |  |  |  |  |  |  |  |  |  | 
O=C([O-])CCc1ccccc1.O=C([O-])CCc1ccccc1.O=C([O-])CCc1ccccc1.O=C([O-])CCc1ccccc1.[Mo+2].[Mo+2] | > 100 | > 100 | > 100 | > 100 | > 100 | > 100 | > 100 | > 100 | > 100 | > 100 | > 100 | > 100 | > 100 | > 100 | > 100 | > 100 | > 100 | > 100 |  | 
CCC1c2cc3n(c(=O)c2COC1O)Cc1c-3nc2ccccc2c1Cl (stereo not drawn) | > 100 | > 84 | > 100 | > 100 | > 100 | > 100 | > 100 | > 100 | > 100 |  |  |  |  |  |  |  |  |  | > 100 | 
C=C(COC(C)=O)CC(/C=C(\C)CC/C=C(\C)CO)OC(C)=O (stereo not drawn) | > 100 | > 100 | > 100 | > 100 | > 100 | > 100 | > 100 | > 100 | > 100 |  |  |  |  |  |  |  |  |  | > 100 | 
N#Cc1c(-c2ccccc2)cc(-c2cccs2)c(C#N)c1N | > 100 | > 100 | > 100 | > 100 | > 100 | > 100 |  |  | > 100 |  |  |  |  |  |  |  |  |  | > 100 | 
NC(CO)c1ccc(OCc2ccccc2)cc1 (stereo not drawn) | > 100 | > 100 | > 100 | > 100 | > 100 | > 100 | > 100 | > 100 | > 100 |  |  |  |  |  |  |  |  |  | > 100 | 
COC(=O)c1nc(C(=O)OC)c2c([nH]c3ccccc32)c1C(=O)OC | > 100 |  | > 100 |  | > 100 | > 100 | > 100 |  | > 100 |  |  |  |  |  |  |  |  |  | > 100 | 
CC(=O)OCC1OC([Se-])C(OC(C)=O)C(OC(C)=O)C1OC(C)=O.N#CCC[PH+](CCC#N)CCC#N.[Au+] (stereo not drawn) | 53.3 | 39.4 | > 74.5 | 41.1 | 37.3 | 29.6 | 41.9 | > 94.6 | > 89 | 6.3 | 7.06 | 10.3 | 7 | 3.5 | 4.95 | 9.81 | 37.1 | 4.75 | 68.8 | 25.2
CCc1cccc(CC)c1NC(=O)CC1SC(N)=NC1=O (stereo not drawn) | > 100 | > 100 | > 100 |  | > 100 | > 100 | > 100 | > 100 | > 100 |  |  |  |  |  |  |  |  |  | > 100 | 
C=CCC12CCC(=O)[C@@]1(C)CC=C(O)C2=O (stereo partly drawn) | > 100 | > 100 | > 100 | > 100 | > 100 | > 100 | > 100 | > 100 | > 100 |  |  |  |  |  |  |  |  |  | > 100 | 
O=c1c(O)cc2c(O)oc3c(=O)c(O)c(O)c4c(O)oc1c2c43 | > 100 | > 100 | > 100 | > 100 | > 100 | > 100 | > 100 | > 100 | > 100 |  |  |  |  |  |  |  |  |  | > 100 | 
COc1cc(C2C(C(=O)O)=C(COC(C)=O)Oc3cc4c(cc32)OCO4)cc(OC)c1OC(C)=O (stereo not drawn) | > 100 | > 100 |  | > 100 |  | > 100 |  | > 100 | > 100 |  |  |  |  |  |  |  |  |  | > 100 | 
C#CCn1c(=O)c2cccnc2n(CC#C)c1=O | > 100 | > 100 | > 100 |  | > 100 | > 100 | > 100 | > 100 | > 100 |  |  |  |  |  |  |  |  |  | > 100 | 
C=C1C(=O)c2cc3c(cc2C(c2cc(OC)c(OC)c(OC)c2)[C@@H]1C(=O)O)OCO3 (stereo partly drawn) | > 100 | > 100 | > 100 |  | > 100 | > 100 |  | > 100 | > 100 |  |  |  |  |  |  |  |  |  |  | 
O=C1C(=C([O-])c2ccccc2)C(=O)c2ccccc21.O=C1C(=C([O-])c2ccccc2)C(=O)c2ccccc21.[Co+2] | > 100 | > 100 | > 100 | > 100 |  |  | > 100 | > 100 | > 100 | > 100 | > 100 | > 100 | > 100 |  |  | > 100 | > 100 | > 100 | > 100 | > 100
CCN1C(=O)N(CC)C2C1NC(=S)N2/N=C/C=C/c1ccccc1OC (stereo not drawn) | > 100 | > 100 | > 100 |  |  | > 100 | > 100 | > 100 | > 100 | < 0.0212 | 0.0401 | 0.0406 |  |  | 0.037 | 0.0715 | 0.0368 | 0.0475 | > 100 | 0.0463
NC(=N\N=C/c1ccc(Cl)cc1Cl)/C(N)=N\N=C/c1ccc(Cl)cc1Cl | 16.7 | 15.6 | > 100 |  |  | > 100 | > 100 | 11.3 | > 100 | 1.32 | 0.576 | > 100 |  |  | 0.795 | > 100 | 1.16 | > 54.3 | 38.7 | 15.1
CCCCCCc1cc2cc(-c3csc(/C=C/c4ccccc4)n3)c(=O)oc2cc1O | 17.1 | 15.2 | 16.4 |  |  | 21.7 | > 100 | 80.3 | 20.7 | 4.62 | 4.19 | 4.42 |  |  | 7.01 | 40.8 | 28.1 | 5.6 | 21.4 | 7.16

From PubChem BioAssay (NCI)
